Test results: US20100204113A1, “USE OF STRESSCOPIN-RELATED PEPTIDE AS A THERAPEUTIC AGENT” (priority 2007, published 2010)
No end group written: not given here.

System: drug-resistant Mycobacterium tuberculosis
Settings: peptide 10 micrograms per ml, seven days

In the case of “HPGSRIVLSLDVPIGLLQILLEQARARAAREQATTNARILARV-NH2 [Stresscopin-related peptide]”, the “% inhibition” value is reported as 0.0%.
